Structures are written as SMILES. Activity calls are given as the source filed them. The rule behind the calls is not given here.

Experiment [1] has as its target T1, Retinoic acid receptor RXR-alpha (Homo sapiens) (UniProt P19793).
T1 sequence (whole entry): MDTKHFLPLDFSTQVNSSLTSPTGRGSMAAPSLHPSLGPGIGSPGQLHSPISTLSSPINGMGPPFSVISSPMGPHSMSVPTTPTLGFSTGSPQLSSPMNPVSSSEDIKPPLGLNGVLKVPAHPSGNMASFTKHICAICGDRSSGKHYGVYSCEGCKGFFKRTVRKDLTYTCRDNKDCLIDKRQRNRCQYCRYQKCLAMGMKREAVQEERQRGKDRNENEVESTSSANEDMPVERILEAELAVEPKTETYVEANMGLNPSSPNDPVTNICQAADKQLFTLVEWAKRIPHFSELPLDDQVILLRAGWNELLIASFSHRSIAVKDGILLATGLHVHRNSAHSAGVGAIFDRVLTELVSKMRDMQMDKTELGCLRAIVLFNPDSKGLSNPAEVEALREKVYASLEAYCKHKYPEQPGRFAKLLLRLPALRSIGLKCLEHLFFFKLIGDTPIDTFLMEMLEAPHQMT
Briefly: Binding affinity to RXRalpha.

Experiment [2] concerns the target T2, Retinoic acid receptor RXR-alpha (Homo sapiens, UniProt P19793).
T2 sequence (P19793 whole entry): T1 sequence (whole entry)
Briefly: Agonist activity at RXRalpha in HEK293 cells assessed as transcriptional activation after 48 hrs by luciferase reporter gene assay. It counts as functional, cell-based. In general terms: Reporter assays use an easily measured gene product as a stand-in for the process of interest.

For experiment [3], the target named is T3, Oxysterols receptor LXR-alpha (Homo sapiens) (UniProt Q13133).
T3 sequence (whole entry): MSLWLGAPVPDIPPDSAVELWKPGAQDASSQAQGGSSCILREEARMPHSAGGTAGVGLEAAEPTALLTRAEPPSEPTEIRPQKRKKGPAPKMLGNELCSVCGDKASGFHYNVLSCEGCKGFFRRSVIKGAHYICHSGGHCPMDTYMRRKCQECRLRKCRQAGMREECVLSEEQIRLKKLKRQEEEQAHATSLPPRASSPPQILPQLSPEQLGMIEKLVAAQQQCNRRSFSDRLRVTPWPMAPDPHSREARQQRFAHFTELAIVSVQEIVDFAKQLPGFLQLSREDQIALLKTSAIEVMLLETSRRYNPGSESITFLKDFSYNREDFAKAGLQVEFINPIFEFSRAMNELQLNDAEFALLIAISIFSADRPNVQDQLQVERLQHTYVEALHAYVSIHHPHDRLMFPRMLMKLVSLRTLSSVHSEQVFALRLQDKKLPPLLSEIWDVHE
Briefly: Agonist activity at LXRalpha in HEK293 cells assessed as transcriptional activation after 48 hrs by luciferase reporter gene assay. The format is functional, cell-based.

Experiment [4] deals with T4, Peroxisome proliferator-activated receptor delta (Homo sapiens) (UniProt Q03181).
T4 sequence (whole entry): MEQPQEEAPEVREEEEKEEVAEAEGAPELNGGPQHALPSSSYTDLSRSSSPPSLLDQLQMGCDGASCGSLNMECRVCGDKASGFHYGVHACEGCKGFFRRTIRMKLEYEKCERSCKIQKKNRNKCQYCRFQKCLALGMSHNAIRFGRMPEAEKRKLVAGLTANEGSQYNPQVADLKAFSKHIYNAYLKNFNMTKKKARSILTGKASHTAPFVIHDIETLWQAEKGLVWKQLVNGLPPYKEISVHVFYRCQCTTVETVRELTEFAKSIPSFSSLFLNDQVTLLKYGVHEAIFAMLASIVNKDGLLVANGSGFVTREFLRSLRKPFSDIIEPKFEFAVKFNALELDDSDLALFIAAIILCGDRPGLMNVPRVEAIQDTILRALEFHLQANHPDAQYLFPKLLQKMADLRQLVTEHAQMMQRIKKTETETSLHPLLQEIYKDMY
The experiment in a line: Agonist activity at PPARdelta in HEK293 cells assessed as transcriptional activation after 48 hrs by luciferase reporter gene assay. The format is functional, cell-based.

The target in experiment [5] is T5, Peroxisome proliferator-activated receptor gamma (Homo sapiens) (UniProt P37231).
T5 sequence (whole entry): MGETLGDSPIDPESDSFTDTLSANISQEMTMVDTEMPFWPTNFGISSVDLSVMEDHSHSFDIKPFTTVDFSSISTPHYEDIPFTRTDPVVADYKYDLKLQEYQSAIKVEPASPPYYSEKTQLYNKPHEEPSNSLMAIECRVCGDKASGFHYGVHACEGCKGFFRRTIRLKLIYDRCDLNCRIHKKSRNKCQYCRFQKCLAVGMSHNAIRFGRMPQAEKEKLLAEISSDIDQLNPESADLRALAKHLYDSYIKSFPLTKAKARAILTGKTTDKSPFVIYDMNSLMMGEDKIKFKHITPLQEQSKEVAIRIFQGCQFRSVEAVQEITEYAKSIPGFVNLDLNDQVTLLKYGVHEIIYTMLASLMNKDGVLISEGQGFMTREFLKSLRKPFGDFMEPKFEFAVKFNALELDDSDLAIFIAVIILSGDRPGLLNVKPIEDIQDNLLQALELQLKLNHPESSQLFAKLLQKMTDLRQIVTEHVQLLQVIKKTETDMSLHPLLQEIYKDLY
Briefly: Agonist activity at PPARgamma in HEK293 cells assessed as transcriptional activation after 48 hrs by luciferase reporter gene assay. It counts as functional, cell-based.

Experiment [6] concerns RAW264.7. The experiment in a line: Activation of RXR/LXR heterodimer in mouse RAW264.7 cells assessed as induction of ABCA1 mRNA expression by RT-PCR. It counts as cell-based.
Experiment [7] relates to RAW264.7. The experiment in a line: Activation of RXR/LXR heterodimer in mouse RAW264.7 cells assessed as induction of ABCG1 mRNA expression by RT-PCR. It counts as cell-based.
Experiment [8] deals with RAW264.7. Briefly: Activation of RXR/LXR heterodimer in mouse RAW264.7 cells assessed as induction of ABCG1 mRNA expression by RT-PCR RXR antagonist HX531. The format is functional, cell-based.
Experiment [9] relates to RAW264.7. The experiment in a line: Activation of RXR/LXR heterodimer in mouse RAW264.7 cells assessed as induction of ABCG1 mRNA expression by RT-PCR in presence of RXR antagonist HX531. It counts as functional, cell-based.
For experiment [10], the system named is RAW264.7. Briefly: Activation of RXR/LXR heterodimer in mouse RAW264.7 cells assessed as induction of ABCG1 mRNA expression by RT-PCR in presence of 22(R)-hydroxycholesterol. The format is cell-based.
Experiment [11] deals with T6, Retinoic acid receptor RXR-alpha (Mus musculus) (UniProt P28700).
T6 sequence (whole entry): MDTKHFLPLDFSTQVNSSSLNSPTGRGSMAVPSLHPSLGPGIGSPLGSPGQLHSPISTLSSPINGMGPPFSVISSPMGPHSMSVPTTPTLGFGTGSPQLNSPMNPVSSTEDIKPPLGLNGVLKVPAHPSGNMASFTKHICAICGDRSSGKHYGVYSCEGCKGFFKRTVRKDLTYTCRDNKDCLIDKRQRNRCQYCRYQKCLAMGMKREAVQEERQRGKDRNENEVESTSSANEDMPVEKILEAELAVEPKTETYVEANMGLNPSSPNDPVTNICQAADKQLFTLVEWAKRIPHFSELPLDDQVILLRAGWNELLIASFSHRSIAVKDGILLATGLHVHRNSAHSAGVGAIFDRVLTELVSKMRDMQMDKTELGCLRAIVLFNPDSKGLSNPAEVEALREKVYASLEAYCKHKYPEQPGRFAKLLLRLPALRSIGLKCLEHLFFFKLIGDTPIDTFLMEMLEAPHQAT
The experiment in a line: Agonist activity at RXRalpha in mouse peritoneal macrophages assessed as ApoAI-mediated cholesterol efflux after 24 hrs […]. The format is functional.

Experiment [12] addresses T6, Retinoic acid receptor RXR-alpha (Mus musculus). The experiment in a line: Agonist activity at RXRalpha in mouse peritoneal macrophages assessed as ApoAI-mediated cholesterol efflux in presence of 22(R)-hydroxycholesterol after 24 hrs […]. The format is functional. For orientation: In western blotting, separated proteins are transferred to a membrane and probed.

For `CC/C=C\C/C=C\C/C=C\C/C=C\C/C=C\C/C=C\CCC(=O)O`, the result in [1] was Active.

Turning to `CC(C)CCC[C@@H](C)CCC[C@@H](C)CCCC(C)CC(=O)O` (stereo partly drawn), the result in experiment [1] was Active.

The EC50 is the concentration giving half of the maximal effect. For `C=CCc1ccc(O)c(-c2ccc(O)c(CC=C)c2)c1` [HONOKIOL], the concentration giving a half-maximal response (EC50) in [2] was 11.8 µM. Also, the outcome in experiment [3], in experiment [4], in [5], in experiment [8], in experiment [9] and in experiment [12] was inactive. The result in experiment [1], in experiment [7], in [10] and in [11] was Active. Moreover, the Activity result in [6] was “Dose-dependent effect”.

Turning to `C=C(c1ccc(C(=O)O)cc1)c1cc2c(cc1C)C(C)(C)CCC2(C)C`, the Activity entry in [6] was “Dose-dependent effect”. Further, the outcome in experiment [11] was Active.

As for `CC(C)CC[C@@H](O)[C@@H](C)[C@H]1CC[C@H]2[C@@H]3CC=C4C[C@@H](O)CC[C@]4(C)[C@H]3CC[C@]12C`, the Activity entry in experiment [6] is “Dose-dependent effect”. The outcome in experiment [11] was Active.

Source of the values: ChEMBL document CHEMBL1212931, “Identification of a naturally occurring rexinoid, honokiol, that activates the retinoid X receptor” (J Nat Prod, 2010).
